ChEMBL document CHEMBL3351354, “From the covalent linkage of drugs to novel inhibitors of ribonucleotide reductase: synthesis and biological evaluation of valproic esters of 3'-C-methyladenosine” (Bioorg Med Chem Lett, 2014)
The source made the active and inactive calls. No cut-off for these calls is given here.

How the values were obtained:
HL-60 [1] = experiment: Induction of cell cycle arrest in human HL60 cells assessed as accumulation at G2M phase at 20 uM in presence of 2 mM VPA after 24 hrs by propidium iodide staining based flow cytometry (reference value: 12%); type: functional
HL-60 [2] = experiment: Induction of cell cycle arrest in human HL60 cells assessed as accumulation at G1 phase at 20 uM after 24 hrs by propidium iodide staining based flow cytometry (reference value: 32%); type: functional
HL-60 [3] = experiment: Induction of cell cycle arrest in human HL60 cells assessed as accumulation at S phase at 20 uM after 24 hrs by propidium iodide staining based flow cytometry (reference value: 54%); type: functional
HL-60 [4] = experiment: Cytotoxicity against human HL60 cells at 20 to 100 uM after 24 to 48 hrs in presence of 2 mM VPA by trypan blue dye exclusion method; type: functional, cell-based
[5] = Growth inhibition of human Caco2 cells after 48 hrs by MTT assay; type: functional, cell-based, Caco-2
[6] = Half life in RPMI-1640 medium containing 10% fetal calf serum assessed as compound disappearance by HPLC-DAD-ESI-MS method; type: ADME, Bos taurus; conditions: cattle
HL-60 [7] = experiment: Induction of apoptosis in human HL60 cells at 20 uM in presence of 2 mM VPA after 24 to 48 hrs by acridine orange and ethidium bromide staining based fluorescence microscopy; type: functional
[8] = Growth inhibition of human HL60 cells after 48 hrs by MTT assay; type: functional, cell-based, HL-60
HL-60 [9] = experiment: Induction of apoptosis in human HL60 cells after 24 to 48 hrs by acridine orange and ethidium bromide staining based fluorescence microscopy; type: functional, cell-based; conditions: Homo sapiens, HL-60; read-out: AC50
HT-29 = experiment: Growth inhibition of human HT-29 cells after 48 hrs by MTT assay; type: functional, cell-based
HL-60 [10] = experiment: Induction of apoptosis in human HL60 cells at 20 uM in presence of 1 mM VPA after 24 to 48 hrs by acridine orange and ethidium bromide staining based fluorescence microscopy; type: functional, cell-based
[11] = Cytotoxicity against human HL60 cells after 24 to 48 hrs by trypan blue dye exclusion method; type: functional, cell-based; conditions: HL-60
HuT78 = experiment: Growth inhibition of human HUT78 cells after 48 hrs by MTT assay; type: functional, cell-based
HL-60 [12] = experiment: Induction of cell cycle arrest in human HL60 cells assessed as accumulation at G2M phase at 20 uM after 24 hrs by propidium iodide staining based flow cytometry (reference value: 12%); type: functional
HL-60 [13] = experiment: Induction of cell cycle arrest in human HL60 cells assessed as accumulation at G1 phase at 20 uM in presence of 2 mM VPA after 24 hrs by propidium iodide staining based flow cytometry (reference value: 32%); type: functional
HL-60 [14] = experiment: Induction of cell cycle arrest in human HL60 cells assessed as accumulation at S phase at 20 uM in presence of 2 mM VPA after 24 hrs by propidium iodide staining based flow cytometry (reference value: 54%); type: functional
K562 = experiment: Growth inhibition of human K562 cells after 48 hrs by MTT assay; type: functional, cell-based
HeLa = experiment: Growth inhibition of human HeLa cells after 48 hrs by MTT assay; type: functional, cell-based
HL-60 [15] = experiment: Cytotoxicity against human HL60 cells at 20 to 100 uM after 24 to 48 hrs in presence of 1 mM VPA by trypan blue dye exclusion method; type: functional, cell-based
MCF7 = experiment: Growth inhibition of human MCF7 cells after 48 hrs by MTT assay; type: functional, cell-based
HL-60 [16] = experiment: Induction of cell cycle arrest in human HL60 cells assessed as accumulation at S phase at 50 uM after 24 hrs by propidium iodide staining based flow cytometry (reference value: 54%); type: functional
[17] = Half life in pH 7.4 isotonic sodium phosphate buffer at 37 degC by HPLC-DAD-ESI-MS method; type: physicochemical
[18] = target: T1, Ribonucleotide reductase (Homo sapiens) (UniProt P23921+Q7LG56); experiment: Inhibition of human recombinant ribonucleotide reductase at 0.1 mM; type: protein-complex assay
HL-60 [19] = experiment: Induction of ROS generation in human HL60 cells at 2 and 5 mM after 24 hrs by DCFH-DA staining based flow cytometry; type: functional, cell-based
[20] = target: T2, Histone deacetylase (Homo sapiens) (UniProt Q13547+O15379+Q9UBN7+Q92769+Q9UQL6+Q8WUI4+Q9BY41+Q96DB2+P56524+Q9UKV0+Q969S8); experiment: Inhibition of HDAC in human HL60 cells assessed as increase in histone H3 acetylation at 10 and 100 uM after 24 hrs by Western blotting method; type: cell-based; conditions: HL-60
HL-60 [21] = experiment: Induction of cell cycle arrest in human HL60 cells assessed as accumulation at G1 phase at 50 uM after 24 hrs by propidium iodide staining based flow cytometry (reference value: 32%); type: functional
[22] = target: T1, Ribonucleotide reductase (Homo sapiens); experiment: Inhibition of ribonucleotide reductase in human HL60 cells assessed as intracellular dNTP pools level at 50 uM after 1 hr by HPLC method; type: cell-based; conditions: HL-60
HL-60 [23] = experiment: Induction of cell cycle arrest in human HL60 cells assessed as accumulation at G2M phase at 50 uM after 24 hrs by propidium iodide staining based flow cytometry (reference value: 12%); type: functional
[24] = target: T2, Histone deacetylase (Homo sapiens); experiment: Inhibition of HDAC in human HL60 cells assessed as increase in p21 expression at 50 uM after 24 hrs by flow cytometry; type: cell-based; conditions: HL-60
[25] = Homo sapiens, Caco-2, 48 h, read-out: IC50
[26] = Homo sapiens, HL-60, 48 h, read-out: IC50
[27] = Homo sapiens, HT-29, 48 h, read-out: IC50
[28] = Homo sapiens, HuT78, 48 h, read-out: IC50
[29] = Homo sapiens, K562, 48 h, read-out: IC50
[30] = Homo sapiens, HeLa, 48 h, read-out: IC50
[31] = Homo sapiens, MCF7, 48 h, read-out: IC50

C[C@@]1(O)[C@@H](CO)O[C@@H](n2cnc3c(N)ncnc32)[C@@H]1O
Activity (HL-60 [1]): 11% | Activity (HL-60 [2]): 31% | Activity (HL-60 [3]): 60% | Activity (HL-60 [4]): Active | IC50 [5, 25]: 24.3 µM | half-life [6]: 43.5 h | Activity (HL-60 [7]): 90% | IC50 [8, 26]: 15.6 µM | AC50 (HL-60 [9]): 75 µM | IC50 (HT-29; [27]): 26.1 µM | Activity (HL-60 [10]): Active | IC50 [11]: 15 µM | IC50 (HuT78; [28]): 17.3 µM | Activity (HL-60 [12]): 9% | Activity (HL-60 [13]): 28% | Activity (HL-60 [14]): 61% | IC50 (K562; [29]): 9.4 µM | IC50 (HeLa; [30]): 23.3 µM | Activity (HL-60 [15]): inactive | IC50 (MCF7; [31]): 22.4 µM

CCCC(CCC)C(=O)Nc1ncnc2c1ncn2[C@@H]1O[C@H](COC(=O)C(CCC)CCC)[C@@](C)(O)[C@H]1OC(=O)C(CCC)CCC
IC50 ([5]; caco-2): ND(Insoluble) | IC50 ([8]; hl-60): ND(Insoluble) | IC50 (HT-29; ht-29): ND(Insoluble) | IC50 (HuT78; hut78): ND(Insoluble) | IC50 (K562; k562): ND(Insoluble) | IC50 (HeLa; hela): ND(Insoluble) | IC50 (MCF7; mcf7): ND(Insoluble)

CCCC(CCC)C(=O)OC[C@H]1O[C@@H](n2cnc3c(N)ncnc32)[C@H](OC(=O)C(CCC)CCC)[C@]1(C)O
Activity (HL-60 [16]): 29% | half-life [17]: > 72 h | inhibition [18]: inactive | Activity (HL-60 [19]): inactive | IC50 [5, 25]: 55.1 µM | half-life [6]: > 72 h | inhibition [20]: inactive | Activity (HL-60 [21]): 71% | IC50 [8, 26]: 16.3 µM | AC50 (HL-60 [9]): 140 µM | IC50 (HT-29; [27]): 54.6 µM | IC50 (HuT78; [28]): 30 µM | inhibition [22]: inactive | IC50 (K562; [29]): 51.9 µM | IC50 (HeLa; [30]): 54.4 µM | Activity (HL-60 [23]): 0% | inhibition [24]: inactive | IC50 (MCF7; [31]): 57.8 µM
